The target in data set [1] is Voltage-gated inwardly rectifying potassium channel KCNH2 (Homo sapiens, UniProt Q12809). The data set is described as follows: Inhibition of human ERG by automated whole cell electrophysiology.
Data set [2] has as its system SW-620. As to the kind of experiment: Antitumor activity against human SW620 cells xenografted in mouse assessed as tumor growth inhibition at 50 mg/kg after 24 hrs. It is filed as functional. The arrangement: scale not given: the % may be the effect or the level left. On the technique in general: In xenograft studies the graft and the host belong to different species.

Data set [3] relates to SW-620. As to the kind of experiment: Antiproliferative activity against human SW620 cells assessed as inhibition of DNA synthesis after 48 hrs by 2-h BrdU uptake assay. It is filed as functional, cell-based.
Data set [4] in a line: Solubility in tris buffer at pH 9. It is filed as physicochemical.
Another data set concerns the target Cytochrome P450 3A4 (Homo sapiens, UniProt P08684). The data set is described as follows: Inhibition of human CYP3A4. It is filed as ADME.
In data set [5] the test system is SW-620. As to the kind of experiment: Antitumor activity against human SW620 cells xenografted in mouse assessed as reduction in tumor size at 2.5 mg/kg after 48 hrs. It is filed as functional, organism-based. On the set-up: dose 2.5 mg/kg.
The subject of data set [6] is Mus musculus. As to the kind of experiment: Inhibition of histone-H3 phosphorylation in human SW620 cells xenografted mouse at 2.5 mg/kg/day, sc after 48 hrs. It is filed as functional. The following applies: SW-620, sc, route subcutaneous.
Data set [7] deals with Mus musculus. As to the kind of experiment: Inhibition of histone-H3 phosphorylation in human SW620 cells xenografted mouse at 0.5 mg/kg/day, sc after 48 hrs. It is filed as functional, organism-based. The following applies: SW-620.

Usually IC50 stands for the midpoint of a concentration-inhibition curve. The term solubility denotes how much of the substance goes into solution per volume. The term inhibition in vivo denotes how much of the control response was suppressed.

≈ marks a conversion by molar mass, not a printed value. Calls of active or inactive are those of the source. No cut-off for these calls is given here. Some results are limits rather than exact numbers.

Sequence of Cytochrome P450 3A4 (P08684 whole entry): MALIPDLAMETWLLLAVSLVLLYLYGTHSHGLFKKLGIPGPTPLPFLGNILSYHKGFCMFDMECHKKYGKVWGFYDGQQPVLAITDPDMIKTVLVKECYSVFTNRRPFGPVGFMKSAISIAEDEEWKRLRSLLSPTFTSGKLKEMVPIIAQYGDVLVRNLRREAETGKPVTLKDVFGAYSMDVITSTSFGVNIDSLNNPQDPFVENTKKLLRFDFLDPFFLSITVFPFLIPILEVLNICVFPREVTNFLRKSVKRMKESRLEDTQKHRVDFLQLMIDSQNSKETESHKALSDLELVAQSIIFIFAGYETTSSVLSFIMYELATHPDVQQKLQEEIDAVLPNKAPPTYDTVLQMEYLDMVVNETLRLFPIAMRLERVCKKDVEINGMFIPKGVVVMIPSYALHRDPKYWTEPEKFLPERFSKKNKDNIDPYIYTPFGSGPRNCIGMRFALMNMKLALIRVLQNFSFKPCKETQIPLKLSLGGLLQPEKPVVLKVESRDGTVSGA
Sequence of Voltage-gated inwardly rectifying potassium channel KCNH2 (Q12809 whole entry): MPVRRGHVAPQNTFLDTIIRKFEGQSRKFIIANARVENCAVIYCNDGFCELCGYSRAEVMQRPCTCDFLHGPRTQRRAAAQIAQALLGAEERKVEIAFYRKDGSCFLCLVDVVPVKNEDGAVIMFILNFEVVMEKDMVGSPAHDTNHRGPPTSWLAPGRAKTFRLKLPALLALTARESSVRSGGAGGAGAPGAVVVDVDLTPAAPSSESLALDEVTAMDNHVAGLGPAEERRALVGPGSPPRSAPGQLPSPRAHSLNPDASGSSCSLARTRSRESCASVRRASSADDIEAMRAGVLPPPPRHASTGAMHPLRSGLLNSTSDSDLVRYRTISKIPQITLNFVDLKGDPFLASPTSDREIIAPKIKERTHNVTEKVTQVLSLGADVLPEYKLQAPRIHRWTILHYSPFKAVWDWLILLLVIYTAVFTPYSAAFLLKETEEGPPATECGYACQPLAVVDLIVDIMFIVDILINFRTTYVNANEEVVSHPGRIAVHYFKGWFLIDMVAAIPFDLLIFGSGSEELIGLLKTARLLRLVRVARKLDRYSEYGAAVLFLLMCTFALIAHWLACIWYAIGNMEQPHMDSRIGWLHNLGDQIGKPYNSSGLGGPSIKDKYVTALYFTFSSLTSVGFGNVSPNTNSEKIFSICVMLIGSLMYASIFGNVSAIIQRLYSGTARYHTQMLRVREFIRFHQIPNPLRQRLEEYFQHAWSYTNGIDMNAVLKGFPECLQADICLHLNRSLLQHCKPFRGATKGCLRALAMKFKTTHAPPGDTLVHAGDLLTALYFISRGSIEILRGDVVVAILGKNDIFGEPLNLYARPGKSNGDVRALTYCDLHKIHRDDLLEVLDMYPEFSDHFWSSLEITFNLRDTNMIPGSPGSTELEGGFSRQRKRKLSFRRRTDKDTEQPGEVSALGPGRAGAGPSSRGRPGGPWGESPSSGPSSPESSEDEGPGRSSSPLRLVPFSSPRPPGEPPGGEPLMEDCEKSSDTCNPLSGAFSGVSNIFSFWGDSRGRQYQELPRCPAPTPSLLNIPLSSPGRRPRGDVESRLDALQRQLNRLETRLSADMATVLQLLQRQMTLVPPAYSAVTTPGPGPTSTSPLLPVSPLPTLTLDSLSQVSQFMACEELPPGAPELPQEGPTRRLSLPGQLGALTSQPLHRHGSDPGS

For `O=C(Cn1cc(Nc2ncnc3cc(OCCCN4CCC[C@@H]4COP(=O)(O)O)ccc23)cn1)Nc1cccc(F)c1F`, the IC50 was more than 100 µM in data set [1], less than 0.001 µM in the data set on SW-620 [3] and 6.1 µM against Cytochrome P450 3A4. For the same compound, in the data set with SW-620 [2], the Activity came to 89%. Also, the solubility in data set [4] was determined as 10000 µg/mL (≈ 16.2 mM). Also, the outcome with SW-620 [5] and with Mus musculus [7] was Active. The compound also registered an inhibition in vivo at 2.5 mg/kg/day in the data set with Mus musculus [6] of 75%.
